Patent publication US10006089B2, “MCL-1 as a therapeutic target in SCFFBW7 deficient neoplasm” (Beth Israel Deaconess Medical Center, Inc., priority 2011, dated 2018)
“Also recorded” adds a separate entry of the source. Where a SMILES comes first, the peptide text is derived from it. The star is where a group is joined. Cbz = O=C(OCc1ccccc1)*

Tests used:
Assay type in all cases: cell-based, human
T-ALL cell lines [1] = assay: Cell viability assay (CellTiter-Glo) of T-ALL cell lines; conditions: for resistance of Fbw7-deficient T-ALL cell lines compared with wild-type Fbw7 lines to apoptotic stimuli (cell viability): FIG. 13c-f; for sensitivity of Fbw7-deficient T-ALL cell lines compared with wild-type Fbw7 lines (cell viability): 0.5% FBS-containing medium, FIG. 13g; for sensitivity of Fbw7-deficient T-ALL cell lines (cell viability): 10% FBS-containing medium, FIG. 12a; for resistance after re-introduction of 3A-Mcl-1: FIG. 14e-f
Description: (§1) Cell culture including synchronization and transfection has been described^6,28. Wild type and Fbw7−/− DLD1 cell lines were kind gifts from Dr. Bert Vogelstein. Murine T-ALL cell lines derived from Tall transgenic mice were kind gifts from Dr. Michele A. Kelliher. Human T-ALL cell lines were previously described^2. Loucy and CMLT1 T-ALL cell lines were obtained from Jon Aster. For various assays described below, T-ALL cells were cultured in either 0.5% FBS or 10% FBS-containing medium for sorafenib (Alexis Biochemicals) or ABT-737 (Symansis) treatment. In the case of combined treatment with both sorafenib and ABT-737, T-ALL cells were maintained in 10% FBS-containing medium. Lentiviral shRNA virus packaging, retrovirus packaging, and subsequent infections were performed as described previously^28. For cell viability assays, cells were plated at 10,000 per well in 96-well plates, and incubated with the appropriate medium containing sorafenib, ABT-737 or DMSO for 48 h. Assays were performed with CellTiter-Glo Luminescent Cell Viability Assay kit according to the manufacturer's instructions (Promega). For detection of apoptosis, cells treated with various drugs were stained with propidium iodide (Roche), or co-stained with Annexin V-PE and 7-amino-actinomycin D (Annexin V-PE Apoptosis Detection Kit I, BD Bioscience) according to the manufacturer's instructions. Stained cells were sorted with Dako-Cytomation MoFlos sorter (Dako) at the Dana-Farber Cancer Institute FACS core facility.

Mcl-1 [2] = assay: Immunoblot analysis of Mcl-1 expression in T-ALL cell lines; conditions: 0.5% FBS-containing medium, FIG. 13h
Description: Cells were lysed in EBC (50 mM Tris pH 8.0, 120 mM NaCl, 0.5% NP-40) buffer supplemented with protease inhibitors (Complete Mini, Roche) and phosphatase inhibitors (phosphatase inhibitor cocktail set I and II, Calbiochem). The protein concentrations of the lysates were measured using the Bio-Rad Bradford protein assay reagent on a Beckman Coulter DU-800 spectrophotometer. The lysates were then resolved by SDS-PAGE and immunoblotted with the indicated antibodies. For immunoprecipitation, 800 μg lysates were incubated with the appropriate antibody (1-2 μg) for 3-4 h at 4° C. followed by one-hour incubation with Protein-A Sepharose beads (GE Healthcare). Immuno-complexes were washed five times with NETN buffer (20 mM Tris, pH 8.0, 100 mM NaCl, 1 mM EDTA and 0.5% NP-40) before being resolved by SDS-PAGE and immunoblotted with the indicated antibodies. Quantification of the immunoblot band intensity was performed with Image J software.

T-ALL cell lines [3] = assay: 7-AAD/Annexin V double-staining FACS analysis of apoptosis; conditions: 48 hours; for effect of sorafenib on ABT-737 sensitivity (apoptosis by FACS): sorafenib and/or ABT-737, 10% FBS
Description: as §1

Mcl-1 [4] = assay: Protein degradation analysis of Myc-Mcl-1 in transfected 293T cells; conditions: 293T cells transfected with Myc-Mcl-1, HA-Fbw7, HA-GSK3, FIG. 9a
Description: Cells were transfected with Myc-Mcl-1 along with HA-Fbw7, or Flag-β-TRCP1, and GFP as a negative control, in the presence or absence of HA-GSK3 and/or HA-ERK1. For half-life studies, cycloheximide (20 μg/ml, Sigma) was added to the media 40 h post-transfection. At various time points thereafter, cells were lysed and protein abundances were measured by immunoblot analysis.

Structure (SMILES): COc1cc([C@@H]2c3cc4c(cc3[C@@H](O[C@@H]3O[C@@H]5CO[C@@H](C)O[C@H]5[C@H](O)[C@H]3O)[C@H]3COC(=O)[C@H]23)OCO4)cc(OC)c1O [etoposide]
- resistance of Fbw7-deficient T-ALL cell lines compared with wild-type Fbw7 lines to apoptotic stimuli (cell viability) (T-ALL cell lines [1]): more resistant
- sensitivity to induced apoptosis after re-introduction of wild-type Fbw7 (T-ALL cell lines [1]; Fbw7-deficient HPB-ALL and JRT3-T3.5 cells, FIG. 14d): partially restored their sensitivity

Structure (SMILES): CNC(=O)c1cc(Oc2ccc(NC(=O)Nc3ccc(Cl)c(C(F)(F)F)c3)cc2)ccn1 [sorafenib]
- sensitivity of Fbw7-deficient T-ALL cell lines compared with wild-type Fbw7 lines (cell viability) (T-ALL cell lines [1]; 48 hours): more sensitive
- sensitivity of Fbw7-deficient T-ALL cell lines (cell viability) (T-ALL cell lines [1]; 48 hours): more sensitive
- effect of sorafenib on ABT-737 sensitivity (cell viability) (T-ALL cell lines [1]; Fbw7-deficient HPB-ALL cells, combined with ABT-737, 10% FBS, 48 hours, FIG. 14g): dose-dependent increase of ABT-737 sensitivity; also recorded: restored ABT-737 sensitivity
- effect on Mcl-1 expression (Mcl-1 [2]): effectively reduce Mcl-1 expression
- effect of sorafenib on ABT-737 sensitivity (apoptosis by FACS) (T-ALL cell lines [3]; Fbw7-deficient CMLT1 and JRT3-T3.5 cells, FIG. 14h): restored ABT-737 sensitivity
- effect of sorafenib on ABT-737 sensitivity (apoptosis by FACS) (T-ALL cell lines [3]; Fbw7-deficient HPB-ALL cells, FIG. 12e): significant increase in the induction of apoptosis; also recorded: restores ABT-737 sensitivity

Structure (SMILES): CC[C@@]1(O)C(=O)OCc2c1cc1n(c2=O)Cc2cc3ccccc3nc2-1 [camptothecin]
- resistance after re-introduction of 3A-Mcl-1 (T-ALL cell lines [1]; DND41 cells): increase in resistance
- resistance of Fbw7-deficient T-ALL cell lines compared with wild-type Fbw7 lines to apoptotic stimuli (cell viability) (T-ALL cell lines [1]): more resistant

Structure (SMILES): CC(=O)O[C@H]1C(=O)[C@@]2(C)[C@H]([C@H](OC(=O)c3ccccc3)[C@]3(O)C[C@H](OC(=O)[C@H](O)[C@@H](NC(=O)c4ccccc4)c4ccccc4)C(C)=C1C3(C)C)[C@]1(OC(C)=O)CO[C@@H]1C[C@@H]2O [Taxol]
- resistance after re-introduction of 3A-Mcl-1 (T-ALL cell lines [1]; DND41 cells): increase in resistance
- resistance of Fbw7-deficient T-ALL cell lines compared with wild-type Fbw7 lines to apoptotic stimuli (cell viability) (T-ALL cell lines [1]): more resistant

Structure (SMILES): CC(C)C[C@@H](C=O)NC(=O)[C@H](CC(C)C)NC(=O)[C@H](CC(C)C)NC(=O)OCc1ccccc1 [MG132] (Cbz-Leu-Leu-Leu-aldehyde)
- effect on Fbw7/GSK3-mediated Mcl-1 destruction (Mcl-1 [4]): blocked

Structure (SMILES): COC(=O)Nc1nc2ccc(C(=O)c3cccs3)cc2[nH]1 [Nocodazole]
- resistance of Fbw7-deficient T-ALL cell lines compared with wild-type Fbw7 lines to apoptotic stimuli (cell viability) (T-ALL cell lines [1]): more resistant

Structure (SMILES): CN(C)CC[C@H](CSc1ccccc1)Nc1ccc(S(=O)(=O)NC(=O)c2ccc(N3CCN(Cc4ccccc4-c4ccc(Cl)cc4)CC3)cc2)cc1[N+](=O)[O-] [ABT-737]
- sensitivity of Fbw7-deficient T-ALL cell lines compared with wild-type Fbw7 lines (cell viability) (T-ALL cell lines [1]; 48 hours): resistant
- sensitivity of Fbw7-deficient T-ALL cell lines (cell viability) (T-ALL cell lines [1]; 48 hours): resistant
- resistance after re-introduction of wild-type or 3A-Mcl-1 (T-ALL cell lines [1]; DND41 cells, 10% FBS, 48 hours, FIG. 14b): increase in resistance
- ABT-737 sensitivity after re-introduction of wild-type Fbw7 (T-ALL cell lines [1]; Fbw7-deficient CMLT1 cells, 10% FBS, 48 hours, FIG. 14a): partially restored its sensitivity
- ABT-737 sensitivity after depletion of endogenous Mcl-1 (T-ALL cell lines [1]; Fbw7-deficient T-ALL cell lines, shMcl-1, 10% FBS, 48 hours, FIG. 12c): restored ABT-737 sensitivity
- ABT-737-induced apoptosis in Fbw7-deficient T-ALL cells (T-ALL cell lines [3]; 10% FBS, FIG. 13j, also immunoblots of apoptotic biomarkers FIG. 12b): impaired
